Legend:
[1] = in vivo; cited from earlier work
[2] = patients; cited from earlier work
neovascularization = assay: Contemplated clinical cases, local ocular CAI against neovascularization; assay type: in vivo
Description: The following contemplated clinical cases of angiogenesis are presented as examples of methods of treatment and not as limitations. Other illustrations of treating systemic or localized angiogenesis are not presented, since the principles involved are similar, and will be apparent to the skilled reader based upon review of an individual's clinical manifestation and the preferred embodiments of the inventive compositions.

[3] = cited from earlier work
[4] = single 5 mg peribulbar injection in humans; cited from earlier work

NC(=O)c1nnn(Cc2cc(Cl)c(C(=O)c3ccc(Cl)cc3)c(Cl)c2)c1N [CAI]
serum half-life [1]: 111 h
plasma concentrations associated with unacceptable toxicity [2]: above 100 micromolar
neovascular regression (neovascularization; Example 9, proliferative diabetic retinopathy, intravitreal 50 mcg): some neovascular regression
neovascular regression (neovascularization; Example 10, subfoveal membrane, intravitreal 200 mcg then periocular sustained release solution): neovascular regression occurs
toxic effects observed in clinical studies ([3]; systemic oral dosing, doses required for effective circulating levels): cerebellar ataxia, peripheral neuropathy and exacerbation of depression
serious side effect of clinical use by systemic administration ([3]; two cases described (Berlin et al. 2002)): loss of vision

C[C@@H]1C[C@H]2[C@@H]3CCC4=CC(=O)C=C[C@]4(C)[C@@]3(F)[C@@H](O)C[C@]2(C)[C@@]1(O)C(=O)CO [Dexamethasone]
dexamethasone detected in the vitreous cavity [4]: 13 ng/mL
